Biological target: T1, GABABR1a/GABABR2 heterodimer (Homo sapiens, UniProt O75899+Q9UBS5)
T1 construct: expressed in transfected cells; membranes prepared from it)
Experiment: [35S]-GTPγS binding assay, potency of PAM
Assay type: biochemical
Conditions: potency of the positive allosteric modulator; log EC50 for GABA plotted against log concentration of modulator
Source text: GABABR1a and GABABR2 were cloned from human brain cDNA and subcloned into pCI-Neo(Promega) and pALTER-1 (Promega), respectively. A GABABR1a-Gαqi5 fusion protein expression vector was constructed using the pCI-Neo-GABABR1a cDNA plasmid and pLEC1-Gαqi5 (Molecular Devices, CA). In order to make the Gαqi5 pertussis toxin insensitive, Cys356 was mutated to Gly using standard PCR methodology with the primers 5′-[…]-3′ (forward) and 5′-GCGGCCG […]-3′ (reverse). The Gαqi5mut cDNA was ligated into the BamHI and NotI sites of pcDNA3.0 (Invitrogen). The GABAB R1a coding sequence was amplified by PCR from pCI-Neo-GABABR1a using the primers, 5′-[…]-3′ (forward) and 5′-[…]-3′ (reverse) and subcloned into the BamHI site of pcDNA3.0-Gαqi5mut. […]
[^35S]-GTPγS binding assays were performed at 30° C. for 45 min in membrane buffer (100 mM NaCl, […], 1 mM EDTA, 5 mM HEPES, pH 7.4) containing 0.025 μg/μl of membrane protein (prepared from the cell lines described above) with 0.01% bovine serum albumin (fatty acid free), 10 μM GDP, 100 μM DTT and 0.53 nM [^35S]-GTPγS (Amersham Pharmacia Biotech) in a final volume of 200 μl. Nonspecific binding was determined in the presence of 20 μM GTPγS. […]

T1 sequence (Q9UBS5 15-961 limits assumed): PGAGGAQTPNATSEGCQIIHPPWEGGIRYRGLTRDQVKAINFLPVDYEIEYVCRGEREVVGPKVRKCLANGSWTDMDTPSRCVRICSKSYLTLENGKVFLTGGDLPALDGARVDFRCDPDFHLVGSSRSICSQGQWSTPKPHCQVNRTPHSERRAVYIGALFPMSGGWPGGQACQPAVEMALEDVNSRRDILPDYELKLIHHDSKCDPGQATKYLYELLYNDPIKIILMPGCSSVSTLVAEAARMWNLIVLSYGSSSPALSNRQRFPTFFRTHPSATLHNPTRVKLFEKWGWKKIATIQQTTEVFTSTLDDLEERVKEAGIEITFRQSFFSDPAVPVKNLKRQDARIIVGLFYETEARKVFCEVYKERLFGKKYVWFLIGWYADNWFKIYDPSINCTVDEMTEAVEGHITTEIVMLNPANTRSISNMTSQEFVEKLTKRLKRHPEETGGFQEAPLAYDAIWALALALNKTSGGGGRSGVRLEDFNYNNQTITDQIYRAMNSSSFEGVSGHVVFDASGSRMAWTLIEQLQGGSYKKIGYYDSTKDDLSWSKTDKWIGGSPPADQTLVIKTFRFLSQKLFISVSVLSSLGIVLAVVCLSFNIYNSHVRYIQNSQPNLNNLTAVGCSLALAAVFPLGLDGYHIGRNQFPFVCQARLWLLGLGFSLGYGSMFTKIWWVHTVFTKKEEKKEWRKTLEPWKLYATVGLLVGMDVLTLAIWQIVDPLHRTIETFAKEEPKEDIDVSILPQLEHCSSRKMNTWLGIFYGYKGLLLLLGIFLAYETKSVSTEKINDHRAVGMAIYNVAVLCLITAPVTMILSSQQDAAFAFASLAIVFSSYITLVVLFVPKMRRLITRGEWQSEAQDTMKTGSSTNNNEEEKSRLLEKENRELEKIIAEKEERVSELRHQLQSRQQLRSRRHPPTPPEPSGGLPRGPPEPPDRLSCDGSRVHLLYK
T1 sequence (O75899 42-941): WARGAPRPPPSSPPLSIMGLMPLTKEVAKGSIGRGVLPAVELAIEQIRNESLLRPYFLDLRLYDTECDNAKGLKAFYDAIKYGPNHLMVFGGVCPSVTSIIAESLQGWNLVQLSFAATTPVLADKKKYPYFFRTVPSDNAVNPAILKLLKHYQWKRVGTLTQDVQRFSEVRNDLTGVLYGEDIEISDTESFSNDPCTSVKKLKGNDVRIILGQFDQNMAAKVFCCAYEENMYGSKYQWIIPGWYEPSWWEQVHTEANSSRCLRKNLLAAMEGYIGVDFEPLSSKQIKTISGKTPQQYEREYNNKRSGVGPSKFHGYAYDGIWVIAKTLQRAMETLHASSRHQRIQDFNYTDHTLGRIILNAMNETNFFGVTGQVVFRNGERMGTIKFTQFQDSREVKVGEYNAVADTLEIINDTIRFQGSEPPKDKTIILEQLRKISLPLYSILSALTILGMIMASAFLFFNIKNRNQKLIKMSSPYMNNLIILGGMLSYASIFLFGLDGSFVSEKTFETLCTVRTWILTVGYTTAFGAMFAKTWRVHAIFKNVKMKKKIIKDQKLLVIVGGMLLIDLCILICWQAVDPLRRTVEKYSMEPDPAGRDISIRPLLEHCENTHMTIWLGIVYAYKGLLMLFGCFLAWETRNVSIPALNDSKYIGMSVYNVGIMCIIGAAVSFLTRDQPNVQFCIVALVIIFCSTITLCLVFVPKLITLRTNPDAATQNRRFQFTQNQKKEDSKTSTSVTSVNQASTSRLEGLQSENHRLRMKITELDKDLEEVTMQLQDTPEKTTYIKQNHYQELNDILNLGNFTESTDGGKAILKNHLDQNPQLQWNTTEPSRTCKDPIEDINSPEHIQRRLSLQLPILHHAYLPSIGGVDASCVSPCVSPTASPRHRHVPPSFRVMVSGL

| EC50 [µM] | SMILES |
| --- | --- |
| 1.96 | CCOC(=O)c1nc(C(C)C)sc1NC(=O)C(CC)c1ccccc1 (centres unmarked) [Example 16, Ethyl 2-isopropyl-5-[(2-phenylbutanoyl)amino]-1,3-thiazole-4-carboxylate] |
| 7.23 | CCOC(=O)c1nc(C(C)C)oc1NC(=O)c1ccc(C(C)(C)C)cc1 [Example 21, Ethyl 5-[(4-tert-butylbenzoyl)amino]-2-isopropyl-1,3-oxazole-4-carboxylate] |
